Measured values taken from PMC4229968, “The Inhibition of the Components from Shengmai Injection towards UDP-Glucuronosyltransferase” (Evidence-based Complementary and Alternative Medicine : eCAM, 2014).

Experiments:
UGT1A10 = biological target: T1, UGT1A10 (Homo sapiens, UniProt Q9HAW8); assay: Recombinant UGT1A10-catalyzed 4-MU glucuronidation inhibition; format: in vitro ADME; conditions: for activity at 100 µM: UGT1A10, 100 μM of compound, 4-MU substrate, read-out: residual activity
T1 construct: purchased BD Gentest Corp. (Woburn, MA, USA); host or cells: baculovirus-infected insect cells
T1 sequence (Q9HAW8 26-530): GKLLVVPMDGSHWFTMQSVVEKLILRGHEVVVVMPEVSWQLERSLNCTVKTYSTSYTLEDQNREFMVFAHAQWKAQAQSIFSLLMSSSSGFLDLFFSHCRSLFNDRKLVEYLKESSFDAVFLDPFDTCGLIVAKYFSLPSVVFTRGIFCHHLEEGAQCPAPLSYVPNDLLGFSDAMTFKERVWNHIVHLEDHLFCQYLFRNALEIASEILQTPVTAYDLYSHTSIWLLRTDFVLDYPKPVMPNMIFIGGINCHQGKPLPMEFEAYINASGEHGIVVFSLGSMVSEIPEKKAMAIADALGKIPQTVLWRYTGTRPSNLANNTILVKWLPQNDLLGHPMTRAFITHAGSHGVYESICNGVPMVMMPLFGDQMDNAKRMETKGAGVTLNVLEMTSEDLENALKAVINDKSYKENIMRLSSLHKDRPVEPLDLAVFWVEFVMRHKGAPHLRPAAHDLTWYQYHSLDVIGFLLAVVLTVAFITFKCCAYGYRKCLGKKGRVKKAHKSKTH
From the text: (§1) 4-Methylumbelliferone (4-MU), 4-methylumbelliferone-β-D-glucuronide (4-MUG), Tris-HCl, 7-hydroxycoumarin, and uridine-5′-diphosphoglucuronic acid (UDPGA) (trisodium salt) were purchased from Sigma-Aldrich (St. Louis, MO). Recombinant human UGT isoforms (UGT1A1, UGT1A3, UGT1A4, UGT1A6, UGT1A7, UGT1A8, UGT1A9, UGT1A10, UGT2B4, UGT2B7, and UGT2B15) expressed in baculovirus-infected insect cells were obtained from BD Gentest Corp. (Woburn, MA, USA). Ophiopogonin D (OD), ophiopogonin D′ (OD′), methylophiopogonanone A (MA), methylophiopogonanone B (MB), and ruscorectal (RU) were purchased from Sichuan Weikeqi Biotechnology Company (Chengdu, Sichuan, China). The purity of these compounds was above 95%. All other reagents were of HPLC grade or of the highest grade commercially available.
(§2) 4-MU, the nonspecific probe substrate for all the UGT isoforms except UGT1A4, was used in the present study to initially screen the inhibition potential of maidong's components towards UGT isoforms as previously reported. In brief, the incubation system (total volume = 200 μL) consisted of recombinant UGTs, 5 mM UDPGA, 5 mM MgCl2, 50 mM Tris-HCl (pH = 7.4), and 4-MU in the absence or presence of different concentrations of maidong's components. The compounds were dissolved in DMSO, and the final concentration of DMSO was below 0.5% (v/v). The used incubation time and protein concentration were previously determined to ensure the reaction rate within the linear range. The 4-MU concentration was equal to known K m or S 50 values for each UGT isoform. After 5 min preincubation at 37°C, the incubation reaction was initiated via adding UDPGA to the mixture system. The reactions were quenched by adding 100 μL acetonitrile with 7-hydroxycoumarin (100 μM) as internal standard. Centrifuged at 20000 ×g for 10 min, an aliquot of supernatant was transferred to an autoinjector vial for HPLC analysis. The HPLC system (Shimadzu, Kyoto, Japan) contained a SCL-10A system controller, two LC-10AT pumps, a SIL-10A autoinjector, and a SPD-10AVP UV detector. Chromatographic separation was carried out using a C18 column (4.6 × 200 mm, 5 μm, Kromasil) at a flow rate of 1 mL/min and UV detector at 316 nm. The mobile phase consisted of acetonitrile (A) and H2O containing 0.5% (v/v) formic acid (B). The following gradient condition was used: 0–15 min, 95–40% B; 15–20 min, 10% B; 20–30 min, 95% B.
To determine the inhibition kinetic type and parameters (K i), the reaction velocity (V) was determined at multiple concentrations of maidong's components and 4-MU (or TFP). Dixon plot and Lineweaver-Burk plot were used to fit the data. The inhibition kinetic type was evaluated through determining the intersection point in the Dixon and Lineweaver-Burk plots.
K m value is the substrate concentration in which the velocity reached half of the maximum velocity (V max) of the reaction. K i value is the inhibition constant.

UGT1A7 = biological target: T2, UGT1A7 (Homo sapiens, UniProt Q9HAW7); assay: Recombinant UGT1A7-catalyzed 4-MU glucuronidation inhibition; format: in vitro ADME; conditions: pH 7.4, probe 4-methylumbelliferone (4-MU), UGT1A7, 100 μM of compound, 4-MU substrate, read-out: residual activity
T2 construct: purchased BD Gentest Corp. (Woburn, MA, USA); host or cells: baculovirus-infected insect cells
T2 sequence (Q9HAW7 26-530): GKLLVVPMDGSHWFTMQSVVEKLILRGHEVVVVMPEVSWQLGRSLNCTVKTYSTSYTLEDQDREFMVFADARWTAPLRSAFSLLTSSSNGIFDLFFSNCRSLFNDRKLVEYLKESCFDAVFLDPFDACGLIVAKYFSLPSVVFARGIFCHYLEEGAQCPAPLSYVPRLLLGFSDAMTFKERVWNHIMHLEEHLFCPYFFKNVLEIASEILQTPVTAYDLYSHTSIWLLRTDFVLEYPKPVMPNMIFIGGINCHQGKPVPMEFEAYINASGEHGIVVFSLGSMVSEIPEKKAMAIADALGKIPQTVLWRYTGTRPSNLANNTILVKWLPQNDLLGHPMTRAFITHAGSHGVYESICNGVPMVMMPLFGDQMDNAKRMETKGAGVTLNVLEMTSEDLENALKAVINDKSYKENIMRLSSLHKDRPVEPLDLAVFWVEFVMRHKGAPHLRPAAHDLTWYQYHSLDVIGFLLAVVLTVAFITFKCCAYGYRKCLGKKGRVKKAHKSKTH
From the text: as §1, §2

[1] = human, pH 7.4, probe 4-methylumbelliferone (4-MU)

Row | SMILES | activity at 100 µM (UGT1A10; [1]) | activity at 100 µM (UGT1A7) | Ki (UGT1A10; UGT1A10-catalyzed 4-MU glucuronidation, read-out: inhibition kinetic parameter (Ki)) | inhibition type (UGT1A10; UGT1A10, Dixon and Lineweaver-Burk plots) | inhibition at 100 µM (UGT1A10; human, pH 7.4, probe 4-methylumbelliferone (4-MU), UGT1A10, at 100 μM, read-out: inhibition percent)
1 | COc1ccc(C[C@@H]2COc3c(C)c(O)c(C)c(O)c3C2=O)cc1 [MB, methylophiopogonanone B] | 96.9 ± 7.3% | 83.4 ± 5.9% | – | – | –
2 | CC1CCC2(OC1)OC1CC3C4CC=C5CC(O)CC(O)C5(C)C4CCC3(C)C1C2C (stereo not shown) [RU, ruscorectal] | 82 ± 5.2% | 52.4 ± 7.4% | – | – | –
3 | C[C@@H]1CC[C@@]2(OC1)O[C@H]1C[C@H]3[C@@H]4CC=C5C[C@@H](O[C@@H]6O[C@H](CO)[C@@H](O)[C@H](O[C@@H]7OC[C@@H](O)[C@H](O)[C@H]7O)[C@H]6O[C@@H]6O[C@@H](C)[C@H](O)[C@@H](O)[C@H]6O)CC[C@]5(C)[C@H]4CC[C@]3(C)[C@H]1[C@@H]2C [OD′, ophiopogonin D′] | 19.8 ± 3.2% | 122 ± 1.3% | 9 µM | noncompetitively inhibited | 80.2%
4 | C[C@@H]1CC[C@@]2(OC1)O[C@H]1C[C@H]3[C@@H]4CC=C5C[C@@H](O)C[C@@H](O[C@@H]6O[C@H](C)[C@H](O)[C@H](O[C@@H]7OC[C@@H](O)[C@H](O)[C@H]7O)[C@H]6O[C@@H]6O[C@@H](C)[C@H](O)[C@@H](O)[C@H]6O)[C@]5(C)[C@H]4CC[C@]3(C)[C@H]1[C@@H]2C [OD, ophiopogonin D] | 26.5 ± 1.5% | 144 ± 8.7% | – | – | –
5 | Cc1c(O)c(C)c2c(c1O)C(=O)[C@H](Cc1ccc3c(c1)OCO3)CO2 [MA, methylophiopogonanone A] | 70 ± 9.3% | 57.5 ± 10.8% | – | – | –
